{"source": "patent US4868208A", "about": "“Antifungal agent and method” (Merck & Co., Inc., priority 1988, dated 1989)", "system": "Cryptococcus neoformans", "experiment": "Agar dilution assay (MIC) against an expanded panel of 84 Cryptococcus neoformans strains", "type": "cell-based", "details": "84 Cryptococcus neoformans isolates, yeast nitrogen base dextrose agar, 0.008 to 16.0 μg/ml", "procedure": "Such activity may be illustrated with test results against Cryptococcus neoformans employing yeast nitrogen base dextrose agar medium. In carrying out the assay, Compound Ia' was solubilized in 10 percent dimethyl sulfoxide (DMSO) supplemented with one drop of Tween 20. Twofold dilutions were made with sterile distilled water/10 percent DMSO to obtain final drug concentrations in the agar dilution assay plates ranging from 0.008 to 16.0 μg/ml against an expanded panel of 84 Cryptococcus neoformans strains.\nThe minimum inhibitory concentration against the expanded panel of 84 Cryptococcus neoformans isolates may be summarized as follows: […]", "data": [{"smiles": "COC(=O)C(C)CNC(=O)C(Cc1ccc(OC)c(Cl)c1)NC(=O)C=CCC(OC(=O)C(O)CC(C)C)C(C)C1OC1c1ccccc1", "note": "(stereo not drawn) [Compound Ia', 5-[[2-[[2-(methoxycarbonyl)propyl]amino]-1-[(3-chloro-4-methoxyphenyl)methyl]-2-oxoethyl]amino]-5-oxo-1-[1-(3-phenyloxiranyl)ethyl]-3-pentenyl 2-hydroxy-4-methylpentanoate]", "values": [{"measurement": "MIC50 (concentration at which 50% of the strains were inhibited)", "value": 8.0, "unit": "µg/mL"}, {"measurement": "MIC90 (concentration at which 90% of the strains were inhibited)", "value": 8.0, "unit": "µg/mL"}, {"measurement": "G-MIC (geometric means of MIC)", "setting": "10 percent DMSO/Tween 20", "value": "> 6.11", "unit": "µg/mL"}]}]}
